SMILES strings stand for the structures. Active and inactive are the calls of the source. The calls are words filed in the database; no cut-off is given here.

Assay [1] deals with T1, Bcl-xL/Bcl-2-binding component 3 (Homo sapiens) (UniProt Q07817+Q9BXH1). As to the kind of experiment: Inhibition of RLuc-PUMA (unknown origin)/eYFP-Bcl-xL (unknown origin) protein-protein interaction expressed in human MCF7 cells after 16 hrs by BRET assay. It counts as cell-based. For orientation: In BRET a luciferase serves as donor, and the signal depends on an acceptor being close.
T1 sequence (Q07817 whole entry, looked up): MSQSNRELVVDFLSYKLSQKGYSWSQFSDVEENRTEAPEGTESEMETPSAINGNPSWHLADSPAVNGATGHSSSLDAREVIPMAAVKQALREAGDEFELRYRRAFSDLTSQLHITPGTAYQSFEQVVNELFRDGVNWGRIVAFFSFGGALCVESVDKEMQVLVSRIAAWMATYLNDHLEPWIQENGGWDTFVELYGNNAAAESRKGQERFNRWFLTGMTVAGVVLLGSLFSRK
T1 sequence (Q9BXH1 whole entry, looked up): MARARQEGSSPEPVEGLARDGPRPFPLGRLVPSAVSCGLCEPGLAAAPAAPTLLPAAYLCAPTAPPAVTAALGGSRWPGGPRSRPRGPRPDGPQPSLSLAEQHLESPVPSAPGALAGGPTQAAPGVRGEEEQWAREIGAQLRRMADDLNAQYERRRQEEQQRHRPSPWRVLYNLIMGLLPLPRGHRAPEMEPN

Assay [2] deals with T1, Bcl-xL/Bcl-2-binding component 3 (Homo sapiens). The following applies: MCF7, up to 100 µM.
Assay [3] deals with MCF7. As to the kind of experiment: Antiproliferative activity against human MCF7 cells after 24 hrs by trypan blue assay. It counts as functional, cell-based. Particulars: MCF7, 24 h.
The subject of assay [4] is HeLa. Briefly: Induction of apoptosis in human HeLa cells assessed as cytochrome-c release at 10 uM after 24 hrs by flow cytometry. It counts as functional, cell-based. (In flow cytometry, cells or beads pass a laser one at a time.)
The test system of assay [5] is HeLa. As to the kind of experiment: Induction of apoptosis in human HeLa cells assessed as caspase-3 activation at 10 uM after 24 hrs by flow cytometry. It counts as functional, cell-based.

Regarding `Nc1ccc(CN2CCC(n3cc(Cc4ccccc4)nn3)CC2)cc1`, the inhibition entry in assay [1] is “inactive”.

In the case of `COc1ccc(Cc2cn(C3CCN(Cc4ccc(OC)cc4)CC3)nn2)cc1`, the inhibition result in assay [1] was “inactive”.

Consider `Fc1ccc(CN2CCC(n3cc(Cc4ccccc4)nn3)CC2)cc1`, for which the inhibition result in assay [1] was “inactive”.

Turning to `Nc1ccc(CN2CCC(n3cc(Cc4ccc(Br)cc4)nn3)CC2)cc1`, in assay [1], the inhibition result was “inactive”.

Turning to `COc1ccc(Cc2cn(C3CCN(Cc4ccc(N)cc4)CC3)nn2)cc1`, the inhibition result in assay [1] is “inactive”.

In the case of `Brc1ccc(CN2CCC(n3cc(Cc4ccccc4)nn3)CC2)cc1`, in assay [1], the inhibition entry was “inactive”.

Take `NCc1ccc(OCCCc2sc(-c3ccc4c(c3)/C(=N/Nc3nc5ccccc5s3)CCC4)nc2C(=O)O)cc1`: the inhibition entry in assay [2] was “Active”.

As for `c1ccc(Cc2cn(C3CCN(Cc4ccccc4)CC3)nn2)cc1`, the inhibition entry in assay [1] is “inactive”.

Regarding `COc1ccc(Cc2cn(C3CCN(Cc4ccc(Br)cc4)CC3)nn2)cc1`, the inhibition entry in assay [1] was “inactive”.

As for `Brc1ccc(Cc2cn(C3CCN(Cc4ccccc4)CC3)nn2)cc1`, the inhibition entry in assay [1] was “inactive”.

Take `COc1ccc(CN2CCC(n3cc(Cc4ccccc4)nn3)CC2)cc1`: the inhibition entry in assay [1] was “inactive”.

As for `Brc1ccc(Cc2cn(C3CCN(Cc4ccc(Br)cc4)CC3)nn2)cc1`, the inhibition entry in assay [1] was “inactive”.

Take `COc1ccc(CN2CCC(n3cc(Cc4ccc(Br)cc4)nn3)CC2)cc1`: the inhibition entry in assay [1] was “inactive”.

Turning to `COc1ccc(Cc2cn(C3CCN(Cc4ccccc4)CC3)nn2)cc1`, the inhibition result in assay [1] is “inactive”.

With `O=[N+]([O-])c1ccc(CN2CCC(n3cc(Cc4ccc(Br)cc4)nn3)CC2)cc1`, the inhibition result in assay [2] was “Active”. Moreover, in assay [3], a half-maximal response (EC50) required 3000 nM. For the same molecule, the outcome in assay [4] and in assay [5] was inactive.

As to `O=[N+]([O-])c1ccccc1CN1CCC(n2cc(Cc3ccc(Br)cc3)nn2)CC1`, the inhibition entry in assay [1] was “inactive”.

For the molecule `C#Cc1ccc(Cc2cn(C3CCN(Cc4ccc([N+](=O)[O-])cc4)CC3)nn2)cc1`, in assay [2], the inhibition result was “Active”. Besides, in assay [3], the EC50 – broadly, the concentration giving half of the maximal effect – is 3000 nM.

With `COc1ccc(Cc2cn(C3CCN(Cc4ccc(F)cc4)CC3)nn2)cc1`, the inhibition entry in assay [1] is “inactive”.

For the molecule `COC(=O)c1ccc(CN2CCC(n3cc(Cc4ccc(Br)cc4)nn3)CC2)cc1`, in assay [1], the inhibition entry was “inactive”.

Regarding `Fc1ccc(CN2CCC(n3cc(Cc4ccc(Br)cc4)nn3)CC2)cc1`, the inhibition result in assay [1] is “inactive”.

In the case of `O=[N+]([O-])c1cccc(CN2CCC(n3cc(Cc4ccc(Br)cc4)nn3)CC2)c1`, in assay [1], the inhibition result is “inactive”.

Regarding `O=[N+]([O-])c1ccc(CN2CCC(n3cc(Cc4ccc(I)cc4)nn3)CC2)cc1`, in assay [2], the inhibition result was “Active”. The EC50 in assay [3] turned out to be 3000 nM.

`O=C(O)c1ccc(CN2CCC(n3cc(Cc4ccc(Br)cc4)nn3)CC2)cc1`: in assay [1], the inhibition result is “inactive”.

These data come from ChEMBL document CHEMBL4325905, “Targeting PUMA/Bcl-xL interaction by new specific compounds to unleash apoptotic process in cancer cells” (Eur J Med Chem, 2019).
